Test results as given in patent publication US20090053294A1, “Anti Mineralocorticoid Therapy of Infection” (priority 2005, published 2009).

Tests used:
[1] = test system: fresh human peripheral blood lymphocytes (PBL); format: cell-based
[2] = test system: monocytotropic HIV-1 isolates; assay: Anti-HIV activity in fresh human monocyte-macrophages (p24 ELISA); format: cell-based; conditions: MOI 0.1, p24 ELISA day 7 post-infection
Description: (§1) For isolation of adherent cells, 3×10^6 non-PHA stimulated peripheral blood cells are resuspended in Hanks buffered saline (with calcium and magnesium) supplemented with 10% human AB serum. The cells are placed in a 96-well microtiter plate at 37° C. for 2 hours. Non-adherent cells are removed by vigorously washing six times. The adherent cells are cultured for 7 days in RPMI 1640 tissue culture medium with 15% fetal bovine serum. The cultures are carefully monitored for confluency during this incubation period. Infection of the cells is performed with monocytotropic HIV-1 isolates. High titer pools of each of these viruses are harvested from Infected cultures of peripheral blood adherent cells and frozen in 1.0 ml aliquots at […]. […] Compounds to be evaluated in the monocyte-macrophage assay are added to the monolayers shortly before infection in order to maximize the potential for identifying active compounds.
(§2) At 2 days post-infection, the medium is decanted and the cultures washed twice with complete medium in order to remove excess virus. […] Control curves are generated in each assay to accurately quantitate the amount of capsid protein in each sample. Data is obtained by spectrophotometric analysis at 450 nm using a Molecular Devices Vmax plate reader. P24 concentrations are calculated from the optical density values by use of the Molecular Device software package Soft Max.

[3] = test system: fresh human monocyte-macrophages; assay: Cytotoxicity in monocyte-macrophages (XTT staining); format: cell-based; conditions: XTT staining day 7 post-infection
Description: as §1, §2

HIV-1 = conditions: PBL, MOI 0.2, day 7, RT activity in supernatant
Description: Fresh human peripheral blood lymphocytes (PBL) are isolated from voluntary Red Cross donors, seronegative for HIV and HBV. Leukophoresed blood is diluted 1:1 with Dulbecco's phosphate buffered saline (PBS) and layered over 14 mL of Ficoll-Hypaque density gradient in a 50mi centrifuge tube. Tubes are then centrifuged for 30 minutes at 600 Xg. Banded PBLs are gently aspirated from the resulting interface and subsequently washed 2× with PBS by low speed centrifugation. After final wash, cells are enumerated by trypan blue exclusion are re-suspended at 1×10^7/ml in RPMI 1640 with 15% fetal bovine serum (FBS), 2 mM L-glutamine, 4 ug/ml PHA-P and allowed to incubate for 48-72 hours at 37″C. After incubation, PBLs are centrifuged and reset in RPMI 1640 with 15% FBS, 2 mM L-glutamine, 100 U/ml penicillin, 100 ug/ml streptomycin, 10 ug/ml gentamycin, and 20 U/ml recombinant human IL-2. PBLs are maintained in this medium at a concentration. of 1-2×10^6/ml with biweekly medium changes, until use in assay protocol. […]
In the standard PBL assay (MOI: 0.2), the assay is ended on day 7 following collection of cell free supernatant samples for reverse transcriptase activity assay. […] Opti-Fluor O is added to each filter mat, and incorporated radioactivity is quantitated utilizing a Wallac 1450 Microbetaplus liquid scintillation counter. […]

[4] = in vivo; cited from earlier work
progesterone receptors = biological target: T1, progesterone receptors (Homo sapiens, UniProt P06401); conditions: cited from earlier work
T1 sequence (P06401 1-933): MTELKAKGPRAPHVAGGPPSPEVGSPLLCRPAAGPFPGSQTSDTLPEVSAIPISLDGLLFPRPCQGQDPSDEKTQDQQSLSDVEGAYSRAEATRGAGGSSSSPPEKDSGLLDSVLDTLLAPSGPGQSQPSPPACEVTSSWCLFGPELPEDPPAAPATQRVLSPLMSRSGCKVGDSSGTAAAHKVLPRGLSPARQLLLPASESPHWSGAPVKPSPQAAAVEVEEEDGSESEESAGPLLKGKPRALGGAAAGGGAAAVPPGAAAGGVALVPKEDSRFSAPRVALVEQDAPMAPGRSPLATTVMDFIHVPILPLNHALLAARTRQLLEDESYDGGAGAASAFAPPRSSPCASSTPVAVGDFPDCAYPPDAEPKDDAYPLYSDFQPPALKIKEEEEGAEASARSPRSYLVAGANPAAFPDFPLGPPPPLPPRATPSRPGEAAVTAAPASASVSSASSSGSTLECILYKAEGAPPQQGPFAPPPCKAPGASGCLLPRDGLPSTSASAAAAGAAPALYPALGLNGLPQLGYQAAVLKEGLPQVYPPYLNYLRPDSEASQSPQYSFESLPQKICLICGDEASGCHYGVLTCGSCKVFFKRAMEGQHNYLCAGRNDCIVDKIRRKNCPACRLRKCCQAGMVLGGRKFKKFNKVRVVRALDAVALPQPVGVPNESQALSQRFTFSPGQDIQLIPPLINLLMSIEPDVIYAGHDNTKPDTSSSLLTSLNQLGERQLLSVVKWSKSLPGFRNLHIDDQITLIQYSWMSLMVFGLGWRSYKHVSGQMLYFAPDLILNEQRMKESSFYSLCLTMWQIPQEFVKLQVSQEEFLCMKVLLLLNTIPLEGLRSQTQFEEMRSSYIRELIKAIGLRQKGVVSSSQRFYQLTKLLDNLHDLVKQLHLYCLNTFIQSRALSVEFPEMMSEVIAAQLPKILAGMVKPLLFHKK

[5] = 50 mg dose; cited from earlier work

| SMILES | health / cell growth of T-lymphocyte cultures [1] | HIV-1 levels in macrophages [2] | cell viability in macrophages [3] | % HIV-1 levels / viral replication in T-lymphocyte cultures (HIV-1) | extent of metabolism [4] | binding affinity for progesterone receptors (progesterone receptors) | Na+/K+ effect [5] |
| --- | --- | --- | --- | --- | --- | --- | --- |
| C[C@]12CCC(=O)C=C1C=C[C@@H]1[C@@H]2CC[C@@]2(C)[C@H]1CC[C@@]2(O)CCC(=O)O [potassium canrenoate] | remain healthy at all concentrations | decreased in a dose dependent fashion | little effect on cell viability | decreased in a dose dependent manner |  |  |  |
| CC(=O)S[C@@H]1CC2=CC(=O)CC[C@]2(C)[C@H]2CC[C@@]3(C)[C@@H](CC[C@@]34CCC(=O)O4)[C@H]12 [spironolactone, 17-hydroxy-7-alpha-mercapto-3oxo-17-alpha-pregn-4ene-21-carboxylic acid gamma-lactone acetate] | remain healthy at all concentrations |  |  | decreased in a dose dependent manner | extensively metabolised |  |  |
| COC(=O)[C@@H]1CC2=CC(=O)CC[C@]2(C)[C@@]23O[C@@H]2C[C@@]2(C)[C@@H](CC[C@@]24CCC(=O)O4)[C@H]13 [Epoxymexrenone, epoxymexrenone] |  |  |  |  |  | reduced | equipotent with spironolactone |
